Source: US4472304A, “(Amido)N-substituted bleomycins, salts thereof and process for preparation thereof” (Nippon Kayaku Kabushiki Kaisha, priority 1981, dated 1984)

Columns and labels:
pulmonary fibrosis = assay: Pulmonary toxicity (pulmonary fibrosis) in mice; settings: for Incidence: Number of mice with pulmonary fibrosis (%) / Incidence: Number of mice with pulmonary fibrosis / Grade: Total score of pulmonary fibrosis/total number of samples / Grade: Total score of pulmonary fibrosis/total number of samples (%): ICR mice, 5 mg/kg i.p. once a day for 10 days; for Incidence: Number of mice with pulmonary fibrosis (%) / Incidence: Number of mice with pulmonary fibrosis: 5 weeks observation; for Incidence: Number of mice with pulmonary fibrosis: mice with fibrosis/total; for Grade: Total score of pulmonary fibrosis/total number of samples / Grade: Total score of pulmonary fibrosis/total number of samples (%): points 0, 1, 2, 4, 6; for Ratio (by comparison with "Bleomycin Complex"): versus Bleomycin Complex
[1] = test system: Mycobacterium smegmatis ATCC 607; assay: Antimicrobial activity against Mycobacterium smegmatis ATCC 607 (agar plate-cylinder); type: cell-based; settings: standard bleomycin A2 (copper-free) assumed 1,000 mcg potency/mg
Description: (§1) 2. ANT[…] MYC[…] ATCC 607 AND BACILLUS SUBTILIS
(§2) The antimicrobial activity was tested against the captioned test organisms by the method of agar plate-cylinder. The activity was recorded on the assumption that the activity of standard sample of bleomycin A2 (copper-free form) is 1,000 mcg poteney/mg.

Bacillus subtilis = assay: Antimicrobial activity against Bacillus subtilis (agar plate-cylinder); type: cell-based; settings: standard bleomycin A2 (copper-free) assumed 1,000 mcg potency/mg
Description: as §1, §2

SMILES | Incidence: Number of mice with pulmonary fibrosis (%) (pulmonary fibrosis) | Incidence: Number of mice with pulmonary fibrosis (pulmonary fibrosis) | Grade: Total score of pulmonary fibrosis/total number of samples (pulmonary fibrosis) | Grade: Total score of pulmonary fibrosis/total number of samples (%) (pulmonary fibrosis) | Ratio (by comparison with "Bleomycin Complex") (pulmonary fibrosis) | Antimicrobial potency of Cu-free compound against Mycobacterium smegmatis ATCC 607 [1] | Antimicrobial potency of Cu-free compound against Bacillus subtilis (Bacillus subtilis)
Cc1c(N)nc(C(CC(N)=O)NCC(N)C(=O)NC(C)C)nc1C(=O)NC(C(=O)NC(C)C(O)C(C)C(=O)NC(C(=O)NCCc1nc(-c2nc(C(=O)NCCCNC(C)c3ccccc3)cs2)cs1)C(C)O)C(OC1OC(CO)C(O)C(O)C1OC1OC(CO)C(O)C(OC(N)=O)C1O)c1cnc[nH]1 [Compound 21, 3-((S)-1'-phenylethyl)aminopropylamino-(amido)N--[isopropyl]-BLM] | 38% | 3/8 | 5/24 | 21% | 0.27 | 11998 mcg potency/mg | 962 mcg potency/mg
Cc1c(N)nc(C(CC(N)=O)NCC(N)C(=O)NCCCNC(C)c2ccccc2)nc1C(=O)NC(C(=O)NC(C)C(O)C(C)C(=O)NC(C(=O)NCCc1nc(-c2nc(C(=O)NCCCNC(C)c3ccccc3)cs2)cs1)C(C)O)C(OC1OC(CO)C(O)C(O)C1OC1OC(CO)C(O)C(OC(N)=O)C1O)c1cnc[nH]1 [Compound 22, 3-((S)-1'-phenylethyl)aminopropylamino-(amido)N--[3-((S)-1'-phenylethyl)aminopropyl]-BLM] | 13% | 1/8 | 1/21 | 4% | 0.05 | 28030 mcg potency/mg | 2800 mcg potency/mg
Cc1c(N)nc(C(CC(N)=O)NCC(N)C(=O)NCCN2CCNCC2)nc1C(=O)NC(C(=O)NC(C)C(O)C(C)C(=O)NC(C(=O)NCCc1nc(-c2nc(C(=O)NCCCNC(C)c3ccccc3)cs2)cs1)C(C)O)C(OC1OC(CO)C(O)C(O)C1OC1OC(CO)C(O)C(OC(N)=O)C1O)c1cnc[nH]1 [Compound 33, 3-((S)-1'-phenylethylamino)propylamino-(amido)N--[2-(1-piperazinyl)ethyl]-BLM] | 56% | 5/9 | 11/27 | 41% | 0.44 | 6359 mcg potency/mg | 5009 mcg potency/mg
CCCCN(CCCC)CCCNC(=O)C(N)CNC(CC(N)=O)c1nc(N)c(C)c(C(=O)NC(C(=O)NC(C)C(O)C(C)C(=O)NC(C(=O)NCCc2nc(-c3nc(C(=O)NCCCNC(C)c4ccccc4)cs3)cs2)C(C)O)C(OC2OC(CO)C(O)C(O)C2OC2OC(CO)C(O)C(OC(N)=O)C2O)c2cnc[nH]2)n1 [Compound 34, 3-((S)-1'-phenylethylamino)propylamino-(amido)N--[3-(di-n-butylamino)propyl]-BLM] | 0% | 0/8 | 0/24 | 0% | 0 | 26023 mcg potency/mg | 2843 mcg potency/mg
CCCCNCCCN(C)CCCNC(=O)c1csc(-c2csc(CCNC(=O)C(NC(=O)C(C)C(O)C(C)NC(=O)C(NC(=O)c3nc(C(CC(N)=O)NCC(N)C(=O)NC(C)C)nc(N)c3C)C(OC3OC(CO)C(O)C(O)C3OC3OC(CO)C(O)C(OC(N)=O)C3O)c3cnc[nH]3)C(C)O)n2)n1 (stereo not shown) [Compound 37, 3-[N--methyl-N--(3-n-butylaminopropyl)amino]propylamino-(amido)N--[isopropyl]-BLM] | 33% | 3/9 | 13/27 | 48% | 0.46 | 13210 mcg potency/mg | 20048 mcg potency/mg
CCCCN(CCCC)CCCNC(=O)C(N)CNC(CC(N)=O)c1nc(N)c(C)c(C(=O)NC(C(=O)NC(C)C(O)C(C)C(=O)NC(C(=O)NCCc2nc(-c3nc(C(=O)NCCCN(C)CCCNCCc4ccc(Cl)cc4)cs3)cs2)C(C)O)C(OC2OC(CO)C(O)C(O)C2OC2OC(CO)C(O)C(OC(N)=O)C2O)c2cnc[nH]2)n1 (stereo not shown) [Compound 46, 3-{N--methyl-N--[3-(2-(p-chlorophenyl)ethyl)aminopropyl]amino}-propylamino-(amido)N--[3-(di-n-butylamino)propyl]-BLM] |  |  |  |  |  | 31690 mcg potency/mg | 3690 mcg potency/mg
CCCCNCCCN(C)CCCNC(=O)C(N)CNC(CC(N)=O)c1nc(N)c(C)c(C(=O)NC(C(=O)NC(C)C(O)C(C)C(=O)NC(C(=O)NCCc2nc(-c3nc(C(=O)NCCC[N+](C)(CCCN(Cc4ccccc4)Cc4ccccc4)Cc4ccccc4)cs3)cs2)C(C)O)C(OC2OC(CO)C(O)C(O)C2OC2OC(CO)C(O)C(OC(N)=O)C2O)c2cnc[nH]2)n1 (stereo not shown) [Compound 50, 3-{N--methyl-N--benzyl-N--[3-(dibenzylamino)propyl]amino}-propylamino-(amido)N--[3-[N--methyl-N--(3-n-butylaminopropyl)]-aminopropyl]-BLM] |  |  |  |  |  | 1417 mcg potency/mg | 376 mcg potency/mg
CCCCN(CCCC)CCCNC(=O)C(N)CNC(CC(N)=O)c1nc(N)c(C)c(C(=O)NC(C(=O)NC(C)C(O)C(C)C(=O)NC(C(=O)NCCc2nc(-c3nc(C(=O)NCCCN(C)CCCNCc4ccc(C#N)cc4)cs3)cs2)C(C)O)C(OC2OC(CO)C(O)C(O)C2OC2OC(CO)C(O)C(OC(N)=O)C2O)c2cnc[nH]2)n1 (stereo not shown) [Compound 61, 3-{N--methyl-N--[3-(p-cyanobenzylamino)propyl]amino}-propylamino-(amido)N--[3-(di-n-butylamino)propyl]-BLM] |  |  |  |  |  | 14730 mcg potency/mg | 4755 mcg potency/mg
Cc1c(N)nc(C(CC(N)=O)NCC(N)C(=O)NCCCNC(C)c2ccccc2)nc1C(=O)NC(C(=O)NC(C)C(O)C(C)C(=O)NC(C(=O)NCCc1nc(-c2nc(C(=O)NCCCN(C)CCCNCc3ccc(C#N)cc3)cs2)cs1)C(C)O)C(OC1OC(CO)C(O)C(O)C1OC1OC(CO)C(O)C(OC(N)=O)C1O)c1cnc[nH]1 [Compound 63, 3-{N--methyl-N--[3-(p-cyanobenzylamino)propyl]amino]propylamino-(amido)N--[(3-((S)-1'-phenylethylamino)propyl]-BLM] |  |  |  |  |  | 21877 mcg potency/mg | 11056 mcg potency/mg
